Laboratory results taken from US6846660B2, “Method of making an aldehyde dehydrogenase with gluconobacter” (Roche Vitamins Inc., priority 1997, dated 2005).

Each compound was assayed against T1, aldehyde dehydrogenase (ADH) (Ketogulonicigenium vulgare, UniProt Q402A8) (assay: Identification of the oxidation products). Conditions: not given.
T1 sequence (Q402A8 32-609): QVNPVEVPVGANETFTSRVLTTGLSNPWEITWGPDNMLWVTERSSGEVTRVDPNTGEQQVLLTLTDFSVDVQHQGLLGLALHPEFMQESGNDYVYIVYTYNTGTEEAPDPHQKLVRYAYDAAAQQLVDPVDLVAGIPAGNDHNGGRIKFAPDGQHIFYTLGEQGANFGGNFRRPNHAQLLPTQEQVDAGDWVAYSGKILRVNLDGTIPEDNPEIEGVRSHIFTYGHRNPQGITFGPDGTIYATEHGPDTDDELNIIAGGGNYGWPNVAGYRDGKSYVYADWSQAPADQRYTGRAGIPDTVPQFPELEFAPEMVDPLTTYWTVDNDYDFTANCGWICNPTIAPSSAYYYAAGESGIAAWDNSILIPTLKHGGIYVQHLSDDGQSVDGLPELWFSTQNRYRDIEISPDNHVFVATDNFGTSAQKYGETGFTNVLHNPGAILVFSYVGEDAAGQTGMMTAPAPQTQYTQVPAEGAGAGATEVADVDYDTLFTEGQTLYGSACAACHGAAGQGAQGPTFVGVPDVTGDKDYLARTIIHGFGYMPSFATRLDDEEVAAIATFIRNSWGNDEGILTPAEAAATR
Assay type: biochemical, Gluconobacter oxydans DSM No. 4025 (FERM BP-3812)
Procedure: The reaction mixture containing the purified enzyme (1.56 mg), L-sorbosone (0.142 mg), PMS (0.008 mg) and PQQ (0.3 mg) in 40μl of the buffer was incubated for 1.5 hours at 30° C. The reaction product was analyzed on thin layer chromatography and HPLC. As a result, the reaction product was identified as 2-KGA in comparison with an authentic sample of 2-KGA.
For `O=C[C@@H](O)[C@@H](O)[C@H](O)[C@@H](O)CO` [L-Gulose], the Product was “L-Gulonic acid”.
With `O=C[C@H](O)[C@@H](O)[C@@H](O)[C@H](O)CO` [D-Galactose] the Product was “D-Galactonic acid”.

Same assay, conditions: products of the oxidation of the substrates of Table 1A
In the case of `O=CC(=O)[C@@H](O)[C@H](O)[C@H](O)CO` [D-Glucosone], the Product is reported as 2-Keto-D-gluconic acid.
For `O=C[C@@H](O)[C@H](O)[C@H](O)CO` [D-Arabinose], the Product was “D-Arabonic acid”.
In the case of `O=C[C@H](O)[C@@H](O)[C@H](O)[C@H](O)CO` [D-Glucose], the Product is reported as “D-Gluconate”.
With `O=C[C@H](O)[C@H](O)[C@H](O)CO` [D-Ribose] the Product was “D-Ribonic acid”.
For `O=CC(=O)[C@@H](O)[C@H](O)[C@@H](O)CO` [L-Sorbosone], the Product was 2-KGA.
In the case of `O=C[C@H](O)[C@@H](O)[C@H](O)CO` [D-Xylose], the Product is reported as “D-Xylonic acid”.
With `O=C[C@@H](O)[C@@H](O)[C@H](O)[C@H](O)CO` [D-Mannose] the Product was “D-Mannoic acid”.

Same assay, conditions: purified enzyme, PMS, PQQ, 1.5 hours at 30 °C; thin layer chromatography and HPLC
`O=CC(=O)[C@@H](O)[C@H](O)[C@@H](O)CO` [L-Sorbosone] was tested, and the reaction product identified was 2-KGA.

These compounds were tested against T1, aldehyde dehydrogenase (ADH) (assay: Prosthetic group: PQQ requirement of the purified enzyme). Conditions: added to basal reaction mixture without PQQ.
Assay type: biochemical, Gluconobacter oxydans DSM No. 4025 (FERM BP-3812)
`O=C(O)c1cc(C(=O)O)c2c(n1)C(=O)C(=O)c1cc(C(=O)O)[nH]c1-2` [PQQ, pyrroloquinoline quinone] was tested, and the “effect of cofactor addition on enzyme activity” value was “restored”.

Each compound was assayed against T1, aldehyde dehydrogenase (ADH) (assay: not given). Conditions: not given.
Assay type: biochemical, Gluconobacter oxydans DSM No. 4025 (FERM BP-3812)
Procedure: The reaction was started at 25° C. with L-sorbosone, and the enzyme activity was measured as the initial reduction rate of DCIP at 600 nm. […] The extinction coefficience of DCIP at pH 8.0 was taken as 15 mM^−1. A reference cuvette contained all the above constituents except L-sorbosone.
The effects of metal ions and inhibitors on the activity of the enzyme were examined by measuring the activity using the same assay method as described under 1) above. Each compound solution was stirred into the basal reaction mixture and the reaction was started with the addition of the enzyme.
With `O.O.O.O.O.O.[Cl-].[Cl-].[Co+2]` [CoCl2.6H2O] the Relative activity was 76.0% and the “effect on enzyme activity (in words)” value was “inhibited the enzyme activity”.
For `[F-].[Na+]` [NaF], the Relative activity was 86.7%.
Work on `[Cl-].[Cl-].[Mg+2]` [MgCl2] yielded a Relative activity of 90.3%.
Compound `[N-]=[N+]=[N-].[Na+]` [NaN3] has a Relative activity of 104.6%.
`O=S(=O)([O-])[O-].O=S(=O)([O-])[O-].O=S(=O)([O-])[O-].[Fe+3].[Fe+3]` [Fe2(SO4)3.xH2O] was tested, and the Relative activity was 58.9% and the “effect on enzyme activity (in words)” value was “inhibited the enzyme activity”.
For `[Cl-].[Cl-].[Zn+2]` [ZnCl2], the Relative activity was 40.3% and the “effect on enzyme activity (in words)” value was “inhibited the enzyme activity”.
`O=S(=O)([O-])[O-].[Cu+2]` [CuSO4] was tested, and the Relative activity was 0.0% and the “effect on enzyme activity (in words)” value was “inhibited the enzyme activity”.
For `[Cl][Ti]([Cl])([Cl])[Cl]` [TiCl4], the Relative activity was 128.0%.
`O.O.O.O.O.O.O=S(=O)([O-])[O-].[Ni+2]` [NiSO4.6H2O] was tested, and the Relative activity was 74.9% and the “effect on enzyme activity (in words)” value was “inhibited the enzyme activity”.
`O=C(O)CI` [Monoiodoacetate] gave a Relative activity of 52.2%.
`O.O.[Ca+2].[Cl-].[Cl-]` [CaCl2.2H2O] was tested, and the Relative activity was 204.5% and the “stimulation of enzyme activity” value was “about 2 fold”.

Same assay, conditions: compound at 1.0 mM; None = 100.0
With `CCN1C(=O)C=CC1=O` [N-Ethylmaleimide] the Relative activity was 110.8%.

What follows are compounds tested against T1, aldehyde dehydrogenase (ADH) (assay: Electron acceptor suitability for oxidation of L-sorbosone to 2-KGA). Conditions: not given.
Assay type: biochemical, Gluconobacter oxydans DSM No. 4025 (FERM BP-3812)
Excerpt: This was affirmed by the failure of the enzyme to convert L-sorbosone to 2-KGA using oxygen as a possible electron acceptor. Furthermore, no oxygen consumption was detected in the reaction mixture as detected with a dissolved oxygen probe. […] However, other conventional electron acceptors can be utilized in conjunction with the enzyme of this invention. DCIP, PMS, ferricyanide and cytochrome c are preferred electron acceptors. There is no minimum amount of electron acceptor which must be present for at least some of the aldehyde substrate to be converted to its corresponding acid. However, the amount of substrate which can be oxidized depends on the amount of the particular electron acceptor and its electron accepting characteristics.
With `O=O` [oxygen] the “suitability as electron acceptor” value was “does not work”.

Same assay, conditions: oxidation of L-sorbosone to 2-KGA by purified ADH
With “nicotinamide adenine dinucleotide phosphate [NADP]” the “suitability as electron acceptor” value was “not suitable electron acceptors”.
For `O=C1C=CC(=Nc2cc(Cl)c(O)c(Cl)c2)C=C1` [DCIP, 2,6-dichlorophenolindophenol], the “suitability as electron acceptor” value was “oxidizes L-sorbosone to 2-KGA in the presence of electron acceptors”.
`COS(=O)(=O)[O-].C[n+]1c2ccccc2nc2ccccc21` [PMS, phenazine methosulfate] was tested, and the “suitability as electron acceptor” value was “oxidizes L-sorbosone to 2-KGA in the presence of electron acceptors”.
For cytochrome c, the “suitability as electron acceptor” value was “oxidizes L-sorbosone to 2-KGA in the presence of electron acceptors”.
